In brackets after ≈: the same amount, converted by molar mass.
Experiments:
[1] = tested on: Human immunodeficiency virus 1; test: Tested for the determination of percentage protection at 100 uM against HIV-1 in ATH8 cells; assay type: functional, ATH-8
[2] = tested on: Human immunodeficiency virus 1; test: Tested for the determination of percentage protection at 10 uM against HIV-1 in ATH8 cells; assay type: functional, ATH-8
[3] = tested on: Human immunodeficiency virus 1; test: Tested for the determination of percentage protection at 1 uM against HIV-1 in ATH8 cells; assay type: functional, ATH-8
[4] = tested on: Human immunodeficiency virus 1; test: Tested for the determination of percentage protection at 50 uM against HIV-1 in ATH8 cells; assay type: functional, ATH-8
Human betaherpesvirus 5 [5] = test: In vitro antiviral activity tested against herpesvirus, HCMV, EC strain by plaque reduction assay in human foreskin fibroblasts; assay type: functional
Human betaherpesvirus 5 [6] = test: In vitro antiviral activity tested against herpesvirus, HCMV, LA strain by plaque reduction assay in human foreskin fibroblasts; assay type: functional
Human betaherpesvirus 5 [7] = test: In vitro antiviral activity tested against herpesvirus, HCMV, AD169 strain by plaque reduction assay in human foreskin fibroblasts; assay type: functional
Human betaherpesvirus 5 [8] = test: In vitro antiviral activity tested against herpesvirus, HCMV, CH strain by plaque reduction assay in human foreskin fibroblasts; assay type: functional
Human betaherpesvirus 5 [9] = test: In vitro antiviral activity tested against herpesvirus, HCMV, Davis strain by plaque reduction assay in human foreskin fibroblasts; assay type: functional
[10] = tested on: Human immunodeficiency virus 1; test: Tested for the determination of percentage toxicity at 1 uM against HIV-1 in ATH8 cells; assay type: organism-based; details: human immunodeficiency virus 1, ath-8, 1 µM
[11] = tested on: Human immunodeficiency virus 1; test: Tested for the determination of percentage toxicity at 50 uM against HIV-1 in ATH8 cells; assay type: organism-based; details: human immunodeficiency virus 1, ath-8, 50 µM
Human alphaherpesvirus 1 [12] = test: Tested for the effective dose required to inhibit HSV-1 in infected mice; assay type: functional
Human alphaherpesvirus 1 [13] = test: Tested for mean day to death of nonsurvivors against HSV-1 infection in mice at 4.7 mg/kg/day; assay type: functional
Human alphaherpesvirus 1 [14] = test: In vitro antiviral activity against herpesvirus, HSV-1, E-377 strain by plaque reduction assay in human foreskin fibroblasts; assay type: functional
[15] = tested on: Human immunodeficiency virus 1; test: Tested for the determination of percentage toxicity at 10 uM against HIV-1 in ATH8 cells; assay type: organism-based; details: human immunodeficiency virus 1, ath-8, 10 µM
Human alphaherpesvirus 1 [16] = test: Number of survivors per number of HSV-1 infected mice treated with 4.7 mg/kg/day; 6/10; assay type: functional
Human alphaherpesvirus 2 [17] = test: Number of survivors per number of HSV-2 infected mice treated with 31.2 mg/kg/day; 9/10; assay type: functional
Human alphaherpesvirus 2 [18] = test: Tested for mean day to death of nonsurvivors against HSV-2 encephalitis in mice at 31.2 mg/kg/day; assay type: functional
Human alphaherpesvirus 2 [19] = test: Tested for mean day to death of nonsurvivors against HSV-2 encephalitis in mice at 7.8 mg/kg/day; assay type: functional
Human alphaherpesvirus 2 [20] = test: Number of survivors per number of HSV-2 infected mice treated with 125 mg/kg/day; 10/10; assay type: functional
Human alphaherpesvirus 2 [21] = test: Number of survivors per number of HSV-2 infected mice treated with 7.8 mg/kg/day; 5/10; assay type: functional
Human alphaherpesvirus 2 [22] = test: Tested for the effective dose required to inhibit HSV-2 encephalitis in infected mice; assay type: functional
Human alphaherpesvirus 2 [23] = test: In vitro antiviral activity tested against herpesvirus, HSV-2, HEET strain by plaque reduction assay in human foreskin fibroblasts; assay type: functional
Human alphaherpesvirus 2 [24] = test: In vitro antiviral activity tested against herpesvirus, HSV-2, JEN strain by plaque reduction assay in human foreskin fibroblasts; assay type: functional
Human alphaherpesvirus 2 [25] = test: In vitro activity tested against herpesvirus, HSV-2, MS strain by plaque reduction assay in human foreskin fibroblasts; assay type: functional
[26] = tested on: Human immunodeficiency virus 1; test: Tested for the determination of percentage toxicity at 100 uM against HIV-1 in ATH8 cells; assay type: organism-based; details: human immunodeficiency virus 1, ath-8, 100 µM
Human alphaherpesvirus 1 [27] = test: Number of survivors per number of HSV-1 infected mice treated with 18.7 mg/kg/day; 10/10; assay type: functional
Human alphaherpesvirus 1 [28] = test: Number of survivors per number of HSV-1 infected mice treated with 75 mg/kg/day; 10/10; assay type: functional
Human alphaherpesvirus 2 [29] = test: In vitro antiviral activity tested against herpesvirus, HSV-2, X-79 strain by plaque reduction assay in human foreskin fibroblasts; assay type: functional
Murid betaherpesvirus 1 [30] = test: Tested for the effective dose required to inhibit systemic MCMV in infected mice; assay type: functional
Murid betaherpesvirus 1 [31] = test: Number of survivors per number of systemic MCMV infected mice treated with 33.4 mg/kg/day; 14/15; assay type: functional
Murid betaherpesvirus 1 [32] = test: In vitro antiviral activity tested against herpesvirus, MCMV, Smith strain by plaque reduction assay in mouse embryo fibroblasts; assay type: functional
Murid betaherpesvirus 1 [33] = test: Tested for mean day to death of nonsurvivors against systemic MCMV infection in mice at 11.2 mg/kg/day; assay type: functional
Murid betaherpesvirus 1 [34] = test: Tested for mean day to death of nonsurvivors against systemic MCMV infection in mice at 3.8 mg/kg/day; assay type: functional
Murid betaherpesvirus 1 [35] = test: Tested for mean day to death of nonsurvivors against systemic MCMV infection in mice at 33.4 mg/kg/day; assay type: functional
Murid betaherpesvirus 1 [36] = test: Number of survivors per number of systemic MCMV infected mice treated with 100 mg/kg/day; 15/15; assay type: functional
Murid betaherpesvirus 1 [37] = test: Number of survivors per number of systemic MCMV infected mice treated with 11.2 mg/kg/day; 14/15; assay type: functional
Murid betaherpesvirus 1 [38] = test: Number of survivors per number of systemic MCMV infected mice treated with 3.8 mg/kg/day; 4/15; assay type: functional
Human alphaherpesvirus 3 [39] = test: In vitro antiviral activity tested against herpesvirus, VZV, Ellen strain by plaque reduction assay in human foreskin fibroblasts; assay type: functional
Human alphaherpesvirus 3 [40] = test: In vitro antiviral activity tested against herpesvirus, VZV, OKA strain by plaque reduction assay in human foreskin fibroblasts; assay type: functional
Homo sapiens = species: Homo sapiens; test: The drug concentration was determined to reduce proliferation of human foreskin fibroblasts to 50% of untreated controls in proliferation assay; assay type: functional; details: read-out: ID50 (the source's name)
[41] = tested on: Human immunodeficiency virus 1; test: Tested for the determination of percentage protection at 1 uM concentrations against HIV-1 in ATH8 Cells; assay type: functional
[42] = tested on: Human immunodeficiency virus 1; test: Tested for the determination of percentage protection at 100 uM concentrations against HIV-1 in ATH8 Cells; assay type: functional
[43] = tested on: Human immunodeficiency virus 1; test: Tested for the determination of percentage protection at 20 uM concentrations against HIV-1 in ATH8 Cells; assay type: functional
[44] = tested on: Human immunodeficiency virus 1; test: Tested for the determination of percentage protection at 5 uM concentrations against HIV-1 in ATH8 Cells; assay type: functional
[45] = tested on: Human immunodeficiency virus 1; test: Tested for the determination of percentage toxicity at 20 uM concentrations against HIV-1 in ATH8 Cells; assay type: functional
[46] = tested on: Human immunodeficiency virus 1; test: Tested for the determination of percentage toxicity at 5 uM concentrations against HIV-1 in ATH8 Cells; assay type: functional
[47] = tested on: Human immunodeficiency virus 1; test: Tested for the determination of percentage toxicity at 1 uM concentrations against HIV-1 in ATH8 Cells; assay type: functional
[48] = tested on: Human immunodeficiency virus 1; test: Tested for the determination of percentage toxicity at 100 uM concentrations against HIV-1 in ATH8 Cells; assay type: functional
[49] = read-out: ED50 (the source's name)
[50] = read-out: ID50 (the source's name)

For `Nc1ncnc2c1ncn2[C@@H]1C[C@H](CO)[C@H]1CO`, the Protection [1] was 52%, the Protection [2] was 63% and the Protection [3] was 47%. For the same compound, the Protection [4] was 48%, the EC50 (Human betaherpesvirus 5 [5]; [49]) was 2.2 µg/mL (≈ 8.83 µM) and the IC50 (Human betaherpesvirus 5 [5]; [50]) was over 100 µg/mL. The EC50 (Human betaherpesvirus 5 [6]; [49]) was 1 µg/mL (≈ 4.01 µM), the IC50 (Human betaherpesvirus 5 [6]; [50]) was over 100 µg/mL and the EC50 (Human betaherpesvirus 5 [7]; [49]) was 3.7 µg/mL (≈ 14.8 µM). For the same compound, the IC50 (Human betaherpesvirus 5 [7]; [50]) was over 100 µg/mL, the EC50 (Human betaherpesvirus 5 [8]; [49]) was 0.9 µg/mL (≈ 3.61 µM) and the IC50 (Human betaherpesvirus 5 [8]; [50]) was over 100 µg/mL. The EC50 (Human betaherpesvirus 5 [9]; [49]) was 0.9 µg/mL (≈ 3.61 µM), the IC50 (Human betaherpesvirus 5 [9]; [50]) was over 100 µg/mL and the Cytotoxity [10] was 11%. For the same compound, the Cytotoxity [11] was 42%, the ED50 (Human alphaherpesvirus 1 [12]) was under 4.7 mg/kg/day and the MDD (Human alphaherpesvirus 1 [13]) was 7.5. It also gave an EC50 (Human alphaherpesvirus 1 [14]; [49]) of 1 µg/mL (≈ 4.01 µM), an IC50 (Human alphaherpesvirus 1 [14]; [50]) of over 100 µg/mL and a Cytotoxity [15] of 32%. For the same compound, the Survivors / treated (Human alphaherpesvirus 1 [16]) was 6, the Survivors / treated (Human alphaherpesvirus 2 [17]) was 9 and the MDD (Human alphaherpesvirus 2 [18]) was 10. For the same compound, the MDD (Human alphaherpesvirus 2 [19]) was 10.8, the Survivors / treated (Human alphaherpesvirus 2 [20]) was 10 and the Survivors / treated (Human alphaherpesvirus 2 [21]) was 5. For the same compound, the ED50 (Human alphaherpesvirus 2 [22]) was 9.7 mg/kg/day, the EC50 (Human alphaherpesvirus 2 [23]; [49]) was 2.2 µg/mL (≈ 8.83 µM) and the IC50 (Human alphaherpesvirus 2 [23]; [50]) was over 100 µg/mL. The EC50 (Human alphaherpesvirus 2 [24]; [49]) was 2.3 µg/mL (≈ 9.23 µM), the IC50 (Human alphaherpesvirus 2 [24]; [50]) was over 100 µg/mL and the EC50 (Human alphaherpesvirus 2 [25]; [49]) was 1.6 µg/mL (≈ 6.42 µM). The IC50 (Human alphaherpesvirus 2 [25]; [50]) was over 100 µg/mL, the Cytotoxity [26] was 44% and the Survivors / treated (Human alphaherpesvirus 1 [27]) was 10. The Survivors / treated (Human alphaherpesvirus 1 [28]) was 10, the EC50 (Human alphaherpesvirus 2 [29]; [49]) was 1.8 µg/mL (≈ 7.22 µM) and the IC50 (Human alphaherpesvirus 2 [29]; [50]) was over 100 µg/mL. For the same compound, the ED50 (Murid betaherpesvirus 1 [30]) was 2.7 mg/kg/day, the Survivors / treated (Murid betaherpesvirus 1 [31]) was 14 and the EC50 (Murid betaherpesvirus 1 [32]; [49]) was 0.05 µg/mL (≈ 0.201 µM). For the same compound, the IC50 (Murid betaherpesvirus 1 [32]; [50]) was over 100 µg/mL, the MDD (Murid betaherpesvirus 1 [33]) was 6 and the MDD (Murid betaherpesvirus 1 [34]) was 5.3. The MDD (Murid betaherpesvirus 1 [35]) was 5, the Survivors / treated (Murid betaherpesvirus 1 [36]) was 15 and the Survivors / treated (Murid betaherpesvirus 1 [37]) was 14. The Survivors / treated (Murid betaherpesvirus 1 [38]) was 4, the EC50 (Human alphaherpesvirus 3 [39]; [49]) was 2.1 µg/mL (≈ 8.42 µM) and the IC50 (Human alphaherpesvirus 3 [39]; [50]) was over 100 µg/mL. For the same compound, the EC50 (Human alphaherpesvirus 3 [40]; [49]) was 2 µg/mL (≈ 8.02 µM), the IC50 (Human alphaherpesvirus 3 [40]; [50]) was over 100 µg/mL and the IC50 (Homo sapiens) was 7.7 µg/mL (≈ 30.9 µM).

`Cc1cn([C@H]2C[C@H](N=[N+]=[N-])[C@@H](CO)O2)c(=O)[nH]c1=O` [ZIDOVUDINE] was tested, and the Protection [41] was 65%, the Protection [42] was 47% and the Protection [43] was 65%. The Protection [44] was 96%, the Cytotoxicity [45] was 54% and the Cytotoxicity [46] was 30%. It also gave a Cytotoxicity [47] of 3% and a Cytotoxicity [48] of 54%.

— ChEMBL document CHEMBL1124752, “Cyclobut-A and cyclobut-G: broad-spectrum antiviral agents with potential utility for the therapy of AIDS” (J Med Chem, 1990)
